# Laboratory results published in US8030543B2, “Efficient transformation method for sunflower and oil seeds based on positive selection” (Avesthagen Limited, priority 2006, dated 2011).
# How the values were obtained:
# [1] = test system: Helianthus annuus CMS234B split embryonic axis (SEA) explants; experiment: Positive selection and regeneration of sunflower SEA explants transformed with pCAMBIA-XI on media containing Xylose; assay type: cell-based; details: for No of PCR +ve explants / No. of explants Regenerating into shootlets / No. of explants surviving I selection (15 days) / No. of explants surviving I selection (21 days) / No. of explants surviving II selection (15 days) / PCR +ve Regenerants: 100 explants infected, pCAMBIA-XI
# Experimental: The seeds were sterilized and the split embryonic axis isolated as described earlier. […] Agrobacterium cells from the glycerol stock were grown overnight in Luria-Bertani (LB) medium containing Rifampicin (10 μg/ml), Gentamycin (10 μg/ml) and Kanamycin (50 μg/ml) and grown exponentially for a period of 4-6 hrs to reach O.D600=1.0. The cells were centrifuged at 6000 rpm for 5 min at 4° C. and then washed and resuspended in MS liquid to reach an O.D600 of 1.0. The excised explants were immediately transferred to a vacuum infiltration flask containing 25 ml of the resuspended culture. Vacuum at 200 atm pressure for 15 min was applied and quickly released. The culture was then drained off completely and explants collected on a blotting paper. […] After two days of co-cultivation, the explants were washed thoroughly with Murashige and Skoog (1972) liquid medium containing Cefotaxime 250 mg/l. […] After the selection period the shoots were subcultured onto Elongation medium containing ½ Strength MS medium. […] The explants surviving first selection were transferred for a second selection to the same medium for 21 days. Explants were subsequently transferred to their respective elongation media. Healthy shootlets were transferred to their respective rooting media.
# [2] = test system: sunflower CMS234B SEA explants; experiment: Screening for capability to utilize xylose as carbon source (untransformed SEA explants); assay type: cell-based, Helianthus annuus; details: MS medium with 0.5 mg/l BAP, 3% Xylose as carbon source
# Experimental: In order to determine if sunflower is capable of using xylose as the carbon source, explants were cultured on regeneration media containing sucrose and xylose respectively.
structure (smiles),measurement,setting,value
"O=C[C@H](O)[C@@H](O)[C@H](O)CO [Xylose, D-Xylose]",No of PCR +ve explants,[1]; Xylose Conc. 15 (mg/l),28
same,No. of explants Regenerating into shootlets,[1]; Xylose Conc. 15 (mg/l),20
same,No. of explants surviving I selection (15 days),[1]; Xylose Conc. 15 (mg/l),80
same,No. of explants surviving I selection (21 days),[1]; Xylose Conc. 15 (mg/l),70
same,No. of explants surviving II selection (15 days),[1]; Xylose Conc. 15 (mg/l),60
same,PCR +ve Regenerants,[1]; Xylose Conc. 15 (mg/l),10
same,No of PCR +ve explants,[1]; Xylose Conc. 20 (mg/l),30
same,No. of explants Regenerating into shootlets,[1]; Xylose Conc. 20 (mg/l),12
same,No. of explants surviving I selection (15 days),[1]; Xylose Conc. 20 (mg/l),72
same,No. of explants surviving I selection (21 days),[1]; Xylose Conc. 20 (mg/l),65
same,No. of explants surviving II selection (15 days),[1]; Xylose Conc. 20 (mg/l),57
same,PCR +ve Regenerants,[1]; Xylose Conc. 20 (mg/l),7
same,No of PCR +ve explants,[1]; Xylose Conc. 25 (mg/l),28
same,No. of explants Regenerating into shootlets,[1]; Xylose Conc. 25 (mg/l),7
same,No. of explants surviving I selection (15 days),[1]; Xylose Conc. 25 (mg/l),65
same,No. of explants surviving I selection (21 days),[1]; Xylose Conc. 25 (mg/l),55
same,No. of explants surviving II selection (15 days),[1]; Xylose Conc. 25 (mg/l),40
same,PCR +ve Regenerants,[1]; Xylose Conc. 25 (mg/l),6
same,No of PCR +ve explants,[1]; Xylose Conc. 30 (mg/l),18
same,No. of explants Regenerating into shootlets,[1]; Xylose Conc. 30 (mg/l),5
same,No. of explants surviving I selection (15 days),[1]; Xylose Conc. 30 (mg/l),50
same,No. of explants surviving I selection (21 days),[1]; Xylose Conc. 30 (mg/l),38
same,No. of explants surviving II selection (15 days),[1]; Xylose Conc. 30 (mg/l),20
same,PCR +ve Regenerants,[1]; Xylose Conc. 30 (mg/l),5
same,green tissue of plantlets,"[1]; plantlets grown on D-Xylose medium, compared to plantlets grown on Hygromycin",90%
same,healthy shoots per explants,[1]; positive selection on Xylose,2-3
same,time within which explants brown and die,[2],2-3 weeks
